Results on five compounds are retold here after patent US8785425B2, “11β-hydroxyandrosta-4-ene-3-ones” (Sun Pharma Advanced Research Company Ltd., priority 2006, dated 2014).

Marks after values point to notes of the source that are not given here.

For series [1], the system named is croton oil induced ear edema. The experiment in a line: Croton oil ear edema. In kind it is in vivo, Mice (male, CD-1). The settings on record: inhibition at 1.6 μg, applied to ear, mice. How it is done:
Mice (male, CD-1) were made into different groups. Test compounds were dissolved in pyridine-water-acetone (4:2:14) solution […] of compound or vehicle solution was applied to the left ear of the mice. The right ear of each mouse was applied simultaneously with 10 μl of pyridine:water:acetone (4:2:14) solution. After 2 hrs of compound or vehicle application, 10 μl of croton oil solution was applied to the left ear of all animals. After 6 hr of croton oil treatment the animals were sacrificed; ears were excised and weighed separately.

Series [2] concerns cotton pellet induced granuloma. The experiment in a line: Cotton pellet granuloma (compound impregnated in pellet). In kind it is in vivo. The settings on record: dose 1000 mcg per pellet, SD rats. How it is done: SD rats were used for assessing anti-inflammatory activity of test compound using cotton pellet granuloma method. Sterilized cotton pellets weighing 20 mg were prepared. Test compounds were dissolved in acetone so as to get the required quantity for each cotton pellet in 500 μl. Different pellets were impregnated with 500 μl of acetone to contain required quantity of test compounds and allowed to dry. Vehicle control pellets were impregnated with 500 μl acetone. Rats were made into different groups. Two cotton pellets were surgically implanted into the scapular region of each rat. On sixth day of such implantation, pellets along with granuloma were taken out. Thymus gland was also separated from each animal and weighed. The pellets with granuloma were dried for 20 hrs at 60° C. and weighed. Mean weights of dry granuloma and thymus, body weight gain/100 g body weights were calculated.

In series [3] the test system is Sephadex induced lung edema. Nature of the series: in vivo. How it is done: (§1) Sephadex G-200 was prepared in sterile saline (10 mg/ml) and allowed to swell for at least 3 days at room temperature. Test compounds were prepared as suspensions by grinding and sonicating the solid in chilled saline. All the compounds were administered intratracheally at 24 hrs and 2 hrs prior to intratracheal administration of Sephadex (5 mg/kg) under light ether anesthesia. Vehicle control animals were administered vehicle instead of Sephadex. At 24 hr after Sephadex instillation, lung and thymus were excised from individual animals and weighed. Wet weight of lung and thymus was corrected for 100 g of initial body weight. The percentage increase in lung weight caused by Sephadex and its inhibitions by the compounds, were calculated. The percentage inhibitions of thymus compared to vehicle control group were also calculated.

The test system of series [4] is liver glycogen deposition. In kind it is in vivo, Male Sprague Dawley rats. Particulars: 3 mg/kg intratracheally, 2 doses 24 hrs apart, adrenalectomized rats. As for the experimental part:
Male Sprague Dawley rats, weighing 190-220 g were bilaterally adrenalectomized and maintained on 0.9% saline solution throughout the experiment. On day 5th and 6th of adrenalectomy, animals were made into different groups, test compounds prepared in cold saline (sonicated for 30 min) were instilled intratracheally 2 doses@3 mg/kg, 24 hrs apart. At 15 hrs after the last treatment, animals were sacrificed and livers were excised and weighed. The glycogen content of the livers was determined by anthrone method. Briefly, a weighed quantity of liver tissue was homogenized with 5% trichloroacetic acid, supernatant mixed with ethanol and kept overnight for precipitation. The glycogen thus extracted was estimated as glucose generated after acid hydrolysis by addition of anthrone reagent at 620 nm. Glycogen content was expressed as mg/100 g liver.

The subject of series [5] is cotton pellet granuloma (blank cotton pellet). The experiment in a line: Assessment of systemic activity by i.v. route (blank cotton pellet granuloma). It counts as in vivo. Particulars: dose 1600 mcg (for 3 days), male SD rats. How it is done: For assessing systemic side effect on i.v. administration, cotton pellet granuloma assay (blank cotton pellet) in male SD rats was undertaken. Sterilized cotton pellets weighing 20 mg were surgically implanted into the scapular region on both sides. Starting from next day of implantation, compounds dissolved in Pharmasove (Pharmasolve 66.67% in saline) or vehicle were administered intravenously at 1.6 mg/kg dose for 3 successive days. On fifth day of implantation, pellets along with granuloma were taken out. The thymus gland was also separated from each animal and weighed. The pellets with granuloma were dried for 20 hrs at 60° C. and weighed. Mean weights of dry granuloma and thymus and body weight gain/100 g body weights were compared with vehicle control groups.

Another series addresses T1, glucocorticoid receptors (Homo sapiens, UniProt P04150).
T1 construct: host or cells: Human HeLa cells
T1 sequence (P04150 1-777): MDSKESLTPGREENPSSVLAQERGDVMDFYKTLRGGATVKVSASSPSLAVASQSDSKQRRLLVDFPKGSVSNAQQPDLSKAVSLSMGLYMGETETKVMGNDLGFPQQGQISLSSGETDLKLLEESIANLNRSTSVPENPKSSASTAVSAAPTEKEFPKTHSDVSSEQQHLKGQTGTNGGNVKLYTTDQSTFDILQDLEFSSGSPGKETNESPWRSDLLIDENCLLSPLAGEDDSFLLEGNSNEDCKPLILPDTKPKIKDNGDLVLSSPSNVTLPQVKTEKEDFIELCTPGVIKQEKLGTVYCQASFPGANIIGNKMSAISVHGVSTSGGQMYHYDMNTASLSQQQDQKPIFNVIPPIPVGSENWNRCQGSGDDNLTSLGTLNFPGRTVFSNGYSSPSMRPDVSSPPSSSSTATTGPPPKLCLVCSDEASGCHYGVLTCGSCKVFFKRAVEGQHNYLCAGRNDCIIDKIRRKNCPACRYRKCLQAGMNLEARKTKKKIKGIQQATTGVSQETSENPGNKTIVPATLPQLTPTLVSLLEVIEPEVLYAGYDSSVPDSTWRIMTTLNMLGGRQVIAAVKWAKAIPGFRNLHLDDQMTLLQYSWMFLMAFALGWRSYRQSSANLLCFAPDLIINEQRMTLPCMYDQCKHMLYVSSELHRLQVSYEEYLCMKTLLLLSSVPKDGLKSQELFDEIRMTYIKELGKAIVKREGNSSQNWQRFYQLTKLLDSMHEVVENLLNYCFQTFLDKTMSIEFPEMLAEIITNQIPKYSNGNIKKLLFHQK
Nature of the series: Glucocorticoid receptor binding assay ([3H]dexamethasone radioligand). The settings on record: HeLa cells transfected with glucocorticoid receptors; for inhibition at 0.1 µM: % inhibition at 100 nM. As for the experimental part:
The steroid receptor binding assay were performed by MDS Pharma Services at their Taipei (Taiwan) pharmacology laboratory.
The activity of test compounds on glucocorticoid receptor was assessed using radioligand binding assays. […] Free [^3H]dexamethasone was removed from the medium by centrifugation and concentration of receptor bound ligand was determined in the supernatant by liquid scintillation counting.
The % inhibition was evaluated using a single concentration of test compound and the corresponding radiolabeled ligand. Results are presented as the percent inhibition of specific binding. The values are average of duplicate determinations for each concentration.

A further series is described as follows: in vivo. Particulars: SD, rat, thymus, other: intratracheal. How it is done: as §1
Setting [6] is: dose 3000 mcg/kg intratracheally, SD rat.

For the compound `CCC(=O)O[C@]1(C(=O)SCF)[C@H](C)C[C@H]2[C@@H]3C[C@H](F)C4=CC(=O)C=C[C@]4(C)[C@@]3(F)[C@@H](O)C[C@@]21C` [Fluticasone propionate, (S)-fluoromethyl 6α,9α-difluoro-11β-hydroxy-16α-methyl-17α-propionyloxy-3-oxoandrosta-1,4-diene-17β-carbothioate, reference compound], the “Mean % Inhibition (croton oil ear edema)” value in series [1] was 81.09^a %. In addition, in series [2], the “Mean % Inhibition of Granuloma” value came to 75.03% and the “Thymus wt. (% Decrease)” value was found to be 82.36%. In addition, the “ED50 Lung edema” value in series [3] (i.t., Sephadex lung edema model in SD rat) is on record as 0.086 mg/kg. For the same compound, in series [3] (i.t., thymus involution, Sephadex lung edema model in SD rat), the “ED50 Thymus” value worked out at 0.36 mg/kg. Moreover, in series [4], the “% Inhibition of thymus” value is listed as 70.17% and the Glycogen content was 1514.65 mg/100 g liver. In addition, in series [5], the “Mean Inhibition of Granuloma (%)” value is reported as 55.62% and the “Mean Thymus wt. Decrease (%)” value was 75.71%.
Usually inhibition stands for the relative decrease from the control value, in per cent. Low values mean a weak effect, high ones a strong effect. As to `C[C@@H]1CC2C3C[C@H](F)C4=CC(=O)C=C[C@]4(C)[C@@]3(F)[C@@H](O)C[C@]2(C)[C@@]1(OC(=O)c1ccco1)C(=O)SOCc1ccc(F)cc1` (stereo partly drawn) [IC.5, 6α,9α-Difluoro-17α-[(2-furanylcarbonyl)oxy]-11β-hydroxy-16α-methyl-3-oxoandrosta-1,4-diene-17β-carbonylsulfenic acid (4-fluorophenyl)methyl ester], the inhibition at 0.1 µM at glucocorticoid receptors amounted to 75%. Moreover, the “Mean Inhibition of Granuloma (%)” value in series [5] is recorded as −22.20%.
The ED50 is the dose that gives a 50% effect, or the effect in half of the subjects. On glucocorticoid receptors (% inhibition at 10 nM), `CCCC1O[C@@H]2C[C@H]3[C@@H]4CCC5=CC(=O)C=C[C@]5(C)[C@H]4[C@@H](O)C[C@]3(C)[C@]2(C(=O)CO)O1` (stereo partly drawn) [Budesonide, (11β,16α)-16,17-[Butylidenebis(oxy)]-11,21-dihydroxypregna-1,4-diene-3,20-dione] gave an inhibition at 0.01 µM of 85%. In “in vivo”, this compound showed an ED50 at 24 h of 0.68 mg/kg. Further, in series [3] (Rattus norvegicus, inhaled or nasal, read-out: ED50 Lung edema), the ED50 came out at 0.101 mg/kg. For the same compound, in series [3] (setting [6]), the “Mean % inhibition Lung edema” value is 119.38% and the “Mean % inhibition Thymus” value is listed as 67.08%. Besides, in series [4], the “% Inhibition of thymus” value stood at 65.02% and the Glycogen content is given as 552.77 mg/100 g liver.
As for `C[C@@H]1C[C@H]2[C@@H]3CCC4=CC(=O)C=C[C@]4(C)[C@@]3(F)[C@@H](O)C[C@]2(C)[C@@]1(O)C(=O)CO` [Dexamethasone, 16α-methyl-9α-fluoro-1,4-pregnadiene-11β,17α,21-triol-3,20-dione, reference compound], in series [1], the “Mean % Inhibition (croton oil ear edema)” value was 50.05^a %. Also, in series [2], the “Mean % Inhibition of Granuloma” value amounted to 44.73% and the “Thymus wt. (% Decrease)” value is on record as 68.66%.
Compound `CCC(=O)O[C@]1(C(=O)SOCF)[C@H](C)CC2C3C[C@H](F)C4=CC(=O)C=C[C@]4(C)[C@@]3(F)[C@@H](O)C[C@@]21C` (stereo partly drawn) [IC.3, 6α,9α-Difluoro-11β-hydroxy-16α-methyl-3-oxo-17α-propionyloxyandrosta-1,4-diene-17β-carbonylsulfenic acid fluoromethyl ester] registered an inhibition at 0.1 µM at glucocorticoid receptors of 72%. For the same compound, the Glycogen content in series [4] is −11.34 mg/100 g liver. In addition, the “Mean Inhibition of Granuloma (%)” value in series [5] is 12.09%.
